Patent publication US20090012148A1, “REDUCING CELLULAR CHOLESTEROL LEVELS AND/OR TREATING OR PREVENTING PHOSPHOLIPIDOSIS” (priority 2005, published 2009)

Tests used:
Type in all cases: cell-based, Chinese hamster
[1] = tested on: CT43 cells; assay: Toxicity assay by cell count (Hoechst 33258); settings: 24 h
Procedure: (§1) To measure toxicity, we treated CT60 and CT43 cells with compounds at 5, 10 and 20 μM for 24 h. The cell number per well was compared to control cells treated with DMSO (FIG. 7). […] Compound 1-a-14 did cause a 50% reduction in cell number at 10 μM for CT60 and an 80% reduction for CT43 cells. Compounds 1-a-4, 5, 6, 8 and 13 were partially toxic as indicated by 20-30% reduction in cell number after 24 h at 10 μM. Procedure Using Cell Count Assay: Compounds were added to CT60 and CT43 cells plated in 384 well plates at 0 (DMSO solvent control), 5, 10 and 20 μM concentrations in quadruplicate using methods similar to the dose dependence assay, except that the cells were stained with Hoechst 33258 nuclear stain. The final DMSO concentration in each well was 0.2%. For the control cells an equivalent amount of DMSO was added to the cells. The cells were incubated for 24, 48 and 72 h. After each time period, cells were washed and then fixed with 1.5% PFA. After washing the cells three times with PBS, the nuclei of the cells were stained using 5 μg/ml Hoechst 33258 (25 mg/ml stock solution in DMSO) in PBS for 45 m at room temperature. Finally, cells were washed three times with PBS, and images were obtained using a Nikon 4× Plan Apo 0.2NA objective. For Hoechst imaging we used the same filter set as for filipin. We collected one 520×696 pixel image per well at 12 intensity bits per pixel. Each pixel is 3.125 by 3.125 μm in […] the object. Cells were counted by defining the standard area of single nuclei (˜200 μm^2) interactively for each plate using the Integrated Morphometry Analysis function of MetaMorph. The number of standard areas per object above a threshold was determined, and the total number of standard areas per image was used as the cell count. The percent reduction in the number of cells compared to DMSO control was calculated for each concentration and time.

[2] = tested on: CT60 cells; assay: Toxicity assay by cell count (Hoechst 33258)
Procedure: as §1

[3] = tested on: CT60 cells; assay: Gas chromatography cholesterol assay
Procedure: The cholesterol lowering effect of the 14 hit compounds identified by filipin labeling was measured by an alternative chemical method that involved GC separation of solvent-extracted cellular lipids (43). CT60 cells were treated with compounds at 10 μM under the same conditions as in the screening assays. Since the GC assay estimates FC content per cell, the values are compared to the average filipin intensity assay (Table 1).
CT60 or CT43 cells were plated on day 1 in 6-well plates. Hit compounds were added to the cells at 10 μM concentration. Cells were incubated for 24 h. Cellular lipids were extracted with hexane: iso-propyl alcohol (3:2 v/v). The lipid extracts were dried and re-suspended in hexane followed by separation on gas chromatograph using β-sitosterol as an internal standard.
Procedure: CT60 cells were plated in 6-well plates in Ham's F-12/1.176 g/L sodium bicarbonate/2 g/L glucose/10% FBS. Following 24 h incubation, cells were treated with 10 μM of each compounds, medium being replaced with Ham's F-12/1.176 g/L sodium bicarbonate/2 g/L glucose/5.5% FBS/20 mM HEPES. The change of the medium in the wells was performed to have experimental conditions similar to those used for the screening once chemical compounds were added to the cells. After 18 h treatment with compounds, cells were washed twice with Hank's balanced salt solutions (HBSS). Cellular lipids were extracted with hexane/isopropyl alcohol (3:2 v/v) (43) dried and resuspended in hexane followed by separation on a gas chromatograph (GC) using following conditions. A Hewlett Packard GC model HP 5890 series II (Palo Alto, Calif.) equipped with a flame ionization detector, split-splitless injector, and 15 m×0.53 mm HP-5 capillary column coated with […] film thickness of 5% phenyl methyl siloxane was used to separate free cholesterol. The injection temperature was maintained at 255° C. and oven temperature was held isothermally at 260° C. using helium as a mobile phase at 30 mL/min flow rate. The free cholesterol (FC) was quantified using beta-sitosterol as internal standard to correct for lipid losses during extraction.

[4] = tested on: CT60 cells; assay: DiI-LDL uptake; settings: DiI-LDL 6 μg/ml, compounds 10 μM, 20 hours, ±SEM
Procedure: CT60 cells were grown to 70% confluency in 96 well special optics plates (Corning, Inc., Corning, N.Y.). After 24 hours, cells were incubated with DiI-LDL (6 μg/ml) and hit compounds (10 μM) in screening medium supplemented with 20 mM HEPES. Each compound was added to 8 wells and an equivalent amount of DMSO with DiI-LDL was added to control wells. After 20 h, cells were washed three times with PBS, fixed with 1.5% PFA for 20 min, and stained with 50 μg/ml filipin for 45 min. Images were acquired using the Discovery-1 automatic fluorescence microscope at 20× magnification. DiI-LDL images were acquired using 535 nm/40 nm excitation filter and 610 nm/60 nm band pass with a Chroma 51001bs DiChroic filter. Filipin images were acquired as described above. Images were acquired for 4 sites per well, yielding 32 images per compound. The DiI-LDL images were background and shade corrected as described above. A low threshold was set to define the cell area based on filipin images. Finally, the average DiI-LDL intensity was measured per cell area.
Cells were incubated with DiI-LDL (6 μg/ml) in the presence of compounds (10 μM) for 20 hours. The intensity per unit cell area was measured as described in Methods. Values are normalized to the intensity per cell area for control (solvent-treated) cells. Values are based on averages from 32 images from 8 wells for each condition. ±SEM.

[5] = tested on: 25RA CHO cells; assay: 3H cholesterol efflux assay on 25RA CHO cells; settings: 10 μM, overnight chase
Procedure: 25RA CHO cells were incubated with 10 μM concentrations of compound 2-a-1, 2-a-3,2-a-8, 2-a-9, and 2-a-13. Cells were loaded with ^3H cholesterol and then chased overnight in the presence or absence of the various compounds. The media over the cells were removed, and radioactivity released from the cells was measured. The cells were then solubilized, and radioactivity remaining in the cells was measured. […] The 25-RA cells do have a defect in SCAP, which alters cholesterol homeostasis, including increased synthesis of cholesterol.

In the case of CCOc1cccc2cc(-c3csc(Nc4cccc(C(F)(F)F)c4)n3)c(=O)oc12 [Compound 1-a-14], the “reduction in cell number” value ([1]; 10 μM) is reported as 80%, the “reduction in cell number” value ([2]; 10 μM, 24 h) is reported as 50% and the “μg FC/μg Protein by GC Fraction of control” value ([3]; 10 μM, FC = free cholesterol) is reported as 1.44 ± 0.16 Fraction of control.
In the case of CCN(CC)c1ccc(C=C2SC(=S)N(c3ccc(OC)cc3)C2=O)cc1 [Compound 2-a-3], the “Cell Count After 24 h @ 10 μM dose Fraction of Control” value ([2]; 10 μM) is reported as 1.00 Fraction of Control, the “μg FC/μg Protein (GC) @ 10 μM dose Fraction of Control” value [3] is reported as 0.81 ± 0.03 Fraction of Control and the “DiI Intensity/cell area Fraction of control” value [4] is reported as 0.62 ± 0.01 Fraction of control. The efflux of cholesterol [5] was “promote efflux of cholesterol”.
In the case of COc1ccccc1Nc1nc(Nc2ccccc2OC)nc(Nc2ccccc2OC)n1 [Compound 2-a-9], the “Cell Count After 24 h @ 10 μM dose Fraction of Control” value ([2]; 10 μM) is reported as 0.90 Fraction of Control, the “μg FC/μg Protein (GC) @ 10 μM dose Fraction of Control” value [3] is reported as 0.75 ± 0.04 Fraction of Control and the “DiI Intensity/cell area Fraction of control” value [4] is reported as 0.85 ± 0.01 Fraction of control. For the same compound, the efflux of cholesterol [5] was “promote efflux of cholesterol”.
FC(F)(F)COc1nc(NN=Cc2cccc(I)c2)nc(N(c2ccccc2)c2ccccc2)n1 [Compound 2-a-12] was tested, and the “reduction in the number of cells” value ([1]; 20 μM) was 75%, the “Cell Count After 24 h @ 10 μM dose Fraction of Control” value ([2]; 10 μM) was 0.67 Fraction of Control and the “reduction in the number of cells” value ([2]; 20 μM, 24 h) was 75%. For the same compound, the “DiI Intensity/cell area Fraction of control” value [4] was 0.72 ± 0.01 Fraction of control.
For O=[N+]([O-])c1cccc(C=NNc2nc(Nc3cccc4ccccc34)nc(N(c3ccccc3)c3ccccc3)n2)c1 [Compound 2-a-13], the “Cell Count After 24 h @ 10 μM dose Fraction of Control” value ([2]; 10 μM) was 1.00 Fraction of Control, the “μg FC/μg Protein (GC) @ 10 μM dose Fraction of Control” value [3] was 0.79 ± 0.04 Fraction of Control and the “DiI Intensity/cell area Fraction of control” value [4] was 0.72 ± 0.01 Fraction of control. For the same compound, the efflux of cholesterol [5] was “promote efflux of cholesterol”.
With C=CCN1C(=O)C(=Cc2cc(C)n(-c3ccccc3)c2C)C(C(=O)OC)=C1C [Compound 2-a-15] the “Cell Count After 24 h @ 10 μM dose Fraction of Control” value ([2]; 10 μM) was 0.94 Fraction of Control, the “μg FC/μg Protein (GC) @ 10 μM dose Fraction of Control” value [3] was 0.89 ± 0.03 Fraction of Control and the “DiI Intensity/cell area Fraction of control” value [4] was 1.00 ± 0.01 Fraction of control.
